# Measured values reported in patent US12274684B2, “Treatment of vasculopathy with prostacyclin and mesenchymal stem cells” (United Therapeutics Corporation, priority 2013, dated 2025).
# Where “and” joins values, the source holds several entries; their conditions need not be identical. Equal entries are not always repeated.
# System: human bone marrow MSC
# Test: Microarray gene expression analysis of MSC (Illumina Human HT12 Expression BeadChip)
# Assay type: cell-based
# Conditions: Tre(+) 250 μg/mL, 24 h
# Experimental: Human bone marrow MSC were expanded and seeded into six (6) T225 flasks using standard growth medium (Table 1). At 95-99% confluency, cells were thoroughly washed with PBS. Three (3) flasks were replenished with basal media containing 250 μg/mL treprostinil, (+)Tre, and the remaining three (3) flasks were replenished with unsupplemented basal media, (−)Tre. After 24 hours of culture, representative images were captured from (+) Tre and (−) Tre cultures. Conditioned media was collected from each replicate, divided into two samples of appropriate volumes, and analyzed separately for: 1) secreted proteins (Myriad RBM InflammationMAP® 1.0) and 2) exosome RNA content. Cells were lysed directly from culture flasks, processed for total RNA isolation, and analyzed for gene expression by microarray (Illumina Human HT12 Expression BeadChip). Microarray gene expression analysis was also performed on MSC from cultures without (−) or with (+) 250 ug/mL treprostinil. Three (3) biological replicates from each condition were analyzed. Of the 77,612 sequences identified among all replicates, only 24,273 were detected above the arbitrary background of 50 counts. 2,984 RNA sequences were unique to Tre(−) cultures, while 1,781 RNA sequences were unique to Tre(+) cultures (panel A). Genes detected in both conditions were further analyzed for differential expression (panel). […] Genes that are expressed only in Tre(−) cultures (that is to say, completely turned off in the Tre(+) cultures) are shown in Table 5.
smiles,measurement,value
CCCCC[C@H](O)CC[C@@H]1[C@H]2Cc3cccc(OCC(=O)O)c3C[C@H]2C[C@H]1O [treprostinil],"ASPM (NM_018136) expression, Rep 1-3",20 counts and 27 counts and 30 counts
same,"ATF3 (NM_001030287) expression, Rep 1-3",1001 counts and 1579 counts and 1041 counts
same,"ATP6V0D2 (NM_152565) expression, Rep 1-3",547 counts and 893 counts and 499 counts
same,"BMP6 (NM_001718) expression, Rep 1-3",1210 counts and 1581 counts and 1181 counts
same,"C11orf96 (NM_001145033) expression, Rep 1-3",2050 counts and 2381 counts and 1885 counts
same,"C13orf33 (NM_032849) expression, Rep 1-3",17304 counts and 24329 counts and 16255 counts
same,"CALD1 (NM_033140) expression, Rep 1-3",0 counts
same,"CD55 (NM_000574) expression, Rep 1-3",7472 counts and 9108 counts and 6555 counts
same,"CD55 (NM_001114752) expression, Rep 1-3",2497 counts and 3119 counts and 2372 counts
same,"COL6A3 (NM_004369) expression, Rep 1-3",5033 counts and 4570 counts and 4303 counts
same,"CPA4 (NM_016352) expression, Rep 1-3",51 counts and 62 counts and 45 counts
same,"CXCL12 (NM_199168) expression, Rep 1-3",853 counts and 627 counts and 534 counts
same,"DDAH1 (NM_001134445) expression, Rep 1-3",136 counts and 155 counts and 107 counts
same,"DKFZp547J0510 (CDNA FLJ42650 fis, clone BRACE3027478) expression, Rep 1-3",183 counts and 135 counts and 125 counts
same,"DUSP1 (NM_004417) expression, Rep 1-3",825 counts and 1489 counts and 963 counts
same,"FAM84A (NM_145175) expression, Rep 1-3",63 counts and 40 counts and 32 counts
same,"GDF5 (NM_000557) expression, Rep 1-3",83 counts and 64 counts and 65 counts
same,"GDF15 (NM_004864) expression, Rep 1-3",11450 counts and 18978 counts and 10088 counts
same,"GDNF (NM_000514) expression, Rep 1-3",689 counts and 845 counts and 824 counts
same,"GPRC5A (NM_003979) expression, Rep 1-3",4151 counts and 5981 counts and 3920 counts
same,"HAS1 (NM_001523) expression, Rep 1-3, second entry",1355 counts and 730 counts and 789 counts
same,"HSD11B1 (NM_005525) expression, Rep 1-3",822 counts and 966 counts and 758 counts
same,"IDH1 (NM_005896) expression, Rep 1-3",1920 counts and 2406 counts and 1792 counts
same,"IER3 (NM_003897) expression, Rep 1-3",2769 counts and 3595 counts and 2558 counts
same,"IGFBP1 (NM_000596) expression, Rep 1-3",5468 counts and 8123 counts and 5321 counts
same,"IL6 (NM_000600) expression, Rep 1-3",6490 counts and 8445 counts and 5640 counts
same,"IL11 (NM_000641) expression, Rep 1-3",851 counts and 1237 counts and 700 counts
same,"ISLR (NM_005545) expression, Rep 1-3",612 counts and 543 counts and 490 counts
same,"KTN1 (NM_001079522) expression, Rep 1-3",531 counts and 612 counts and 596 counts
same,"KYNU (NM_003937) expression, Rep 1-3",867 counts and 922 counts and 797 counts
same,"LIPG (NM_006033) expression, Rep 1-3",1552 counts and 1946 counts and 1607 counts
same,"MEST (NM_177525) expression, Rep 1-3",367 counts and 268 counts and 258 counts
same,"METTL7A (NM_014033) expression, Rep 1-3",146 counts and 95 counts and 85 counts
same,"MYLK (NM_053025) expression, Rep 1-3",0 counts
same,"NAP1L3 (NM_004538) expression, Rep 1-3",68 counts and 35 counts and 42 counts
same,"NGFR (NM_002507) expression, Rep 1-3",1217 counts and 1818 counts and 1074 counts
same,"NR4A2 (NM_006186) expression, Rep 1-3",635 counts and 810 counts and 592 counts
same,"OLFML1 (NM_198474) expression, Rep 1-3 (Table 4)",177 counts and 128 counts and 114 counts
same,"PALLD (NM_001166110) expression, Rep 1-3",1158 counts and 885 counts and 1055 counts
same,"PAQR5 (NM_017705) expression, Rep 1-3",703 counts and 745 counts and 664 counts
same,"PDE4B (NM_001037339) expression, Rep 1-3",1160 counts and 1371 counts and 1056 counts
same,"PDE4D (NM_001197221) expression, Rep 1-3",1130 counts and 1170 counts and 1071 counts
same,"PDE4D (NM_001197222) expression, Rep 1-3",1417 counts and 2044 counts and 1570 counts
same,"PDE5A (NM_033430) expression, Rep 1-3",174 counts and 286 counts and 206 counts
same,"PDK4 (NM_002612) expression, Rep 1-3",1296 counts and 1726 counts and 1173 counts
same,"PITPNC1 (NM_181671) expression, Rep 1-3",702 counts and 1007 counts and 764 counts
same,"PLIN2 (NM_001122) expression, Rep 1-3",82301 counts and 124225 counts and 72254 counts
same,"PLOD2 (NM_000935) expression, Rep 1-3",1169 counts and 1679 counts and 925 counts
same,"PRELP (NM_002725) expression, Rep 1-3",159 counts and 104 counts and 80 counts
same,"PRKAG2 (NM_024429) expression, Rep 1-3",7233 counts and 8152 counts and 6080 counts
same,"PTP4A1 (NM_003463) expression, Rep 1-3",849 counts and 696 counts and 510 counts
same,"RCAN1 (NM_203418) expression, Rep 1-3",7766 counts and 11997 counts and 6962 counts
same,"RCAN2 (NM_001251974) expression, Rep 1-3",129 counts and 109 counts and 76 counts
same,"RND3 (NM_005168) expression, Rep 1-3",48372 counts and 65016 counts and 41881 counts
same,"S100A4 (NM_002961) expression, Rep 1-3",149 counts and 114 counts and 113 counts
same,"SAT1 (transcript variant 2, non-coding RNA) expression, Rep 1-3",1141 counts and 1529 counts and 954 counts
same,"SCG2 (NM_003469) expression, Rep 1-3",1014 counts and 1187 counts and 1069 counts
same,"SEC31A (NM_001077207) expression, Rep 1-3",737 counts and 887 counts and 573 counts
same,"SIK1 (NM_173354) expression, Rep 1-3",1144 counts and 1320 counts and 1086 counts
same,"SLC2A12 (NM_145176) expression, Rep 1-3",110 counts and 114 counts and 92 counts
same,"SLC3A2 (NM_001013251) expression, Rep 1-3",31831 counts and 39703 counts and 29042 counts
same,"SLC6A15 (NM_182767) expression, Rep 1-3",1201 counts and 1568 counts and 1062 counts
